We go through 11 molecules from patent EP0173664A2, “Biologically active benzimidazole compounds and process for their preparation” (priority 1984, dated 1986).

This test concerns isolated rabbit gastric glands. The test can be described thus: Inhibiting effect in vitro on acid secretion in isolated rabbit gastric glands (14C-aminopyrine accumulation, histamine-stimulated). The test is classed as cell-based. The conditions noted are these: Oryctolagus cuniculus, 1 h; negative logarithm of concentration (in M) giving 50% inhibition of aminopyrine accumulation; glands incubated 60 min with 5x10^-5M histamine; read-out: Biological effect in glands pIC50 (converted). As for the experimental part:
Isolated rabbit gastric glands were prepared as described by Berglindh et al., Acta physiol. scand. 1976. 96. 150-159. This method involves vascular perfusion of the rabbit stomach via the gastric arteries, scraping and scissor mincing of the separated gastric mucosa and collagenase (0.1%, Type I, Sigma Chemicals, St. Louis, MO. USA) digestion at 37°C for 60-90 min. The glands are then harvested and filtered through nylon cloth to remove coarse fragments. The glands are thereafter incubated at 37°C in a medium containing NaCl 132.4 mM, KC1 5.4 mM, […], NaH2P04 1.0 mM, MgS04 1.2 mM, CaCl2 1.0 mM, glucose 10 mM, and 1 mg/ml rabbit albumine, pH 7.4.
The acid secretion in the isolated gland preparation was recorded by measuring the uptake of ^14C-labelled aminopyrine into the glands as described by Berglindh et al., Acta physiol. scand. 1976. 97. 401-414. Accumulation of aminopyrine in the glands indicates gastric acid secretion within the glands. The standard medium contained 10^-6M ^14C-aminopyrine (Amersham, Great Britain). After the incubation period, the glands were centrifuged, the supernatant was removed and the glands dried, weighed and dissolved in Soluene -350 (Packard, IU. USA). Samples of the supernatant and glands were separately counted in a scintillation counter. The accumulation of ^14 C-labelled aminopyrine in the glands was calculated as detailed by Berglindh et al., Acta physiol. scand. 1976. 97. 403.
Glands were incubated for 60 min. in the presence of 5x10^-5M histamine and the test compound to be studied. The free base of the test compound was dissolved in methanol. The final concentration of methanol was 1% in the incubation medium, having no influence on the aminopyrine accumulation ratio. For each test compound a complete dose-response curve was generated by testing doses in duplicate in the concentration range 10^-7M to 10-^4M.
For the molecule `CCc1cnc(C[S+]([O-])c2nc3cc(C)c(C)cc3[nH]2)cc1Oc1ccccc1` (centres unmarked) [Example 1, 5,6-dimethyl-2-[[(4-phenoxy-5--ethyl-2-pyridinyl)methyl]sulfinyl]-1H-benzimidazole], the IC50 is 1000 nM. As to `COc1ccc2[nH]c([S+]([O-])Cc3cc(Oc4ccc(C)cc4)ccn3)nc2c1` (centres unmarked) [Example 3, 5-methoxy-2-[[[4-(4-methylphenoxy)--2-pyridinyl]methyl]sulfinyl]-1H-benzimidazole], the IC50 is 794 nM. For `CCc1cnc(C[S+]([O-])c2nc3cc(OC)ccc3[nH]2)cc1Oc1ccccc1` (centres unmarked) [Example 6], the IC50 is 316 nM.

In the case of `COc1ccc2[nH]c([S+]([O-])Cc3cc(-c4ccccc4)ccn3)nc2c1` (centres unmarked) [Example 8], the IC50 is 2510 nM. Consider `COc1ccc2[nH]c([S+]([O-])Cc3cc(Oc4ccccc4)ccn3)nc2c1` (centres unmarked) [Example 10], for which the IC50 is 1260 nM. Take `Cc1cc2nc([S+]([O-])Cc3cc(Oc4ccccc4)ccn3)[nH]c2cc1C` (centres unmarked) [Example 12]: the IC50 is 316 nM. Under `COc1ccc2[nH]c([S+]([O-])Cc3nccc(Oc4ccc(C)cc4)c3C)nc2c1` (centres unmarked) [Example 16] stands 631 nM. In the case of `COc1ccc2[nH]c([S+]([O-])Cc3cc(Oc4ccc(C)cc4)c(C)cn3)nc2c1` (centres unmarked) [Example 18] it was 631 nM; in that of `COc1ccc2[nH]c([S+]([O-])Cc3cc(OCc4ccccc4)c(C)cn3)nc2c1` (centres unmarked) [Example 22], 79.4 nM. In the case of `Cc1cc2nc([S+]([O-])Cc3cc(-c4ccccc4)ccn3)[nH]c2cc1C` (centres unmarked) [Example 24] it was 7940 nM; in that of `CCc1cnc(C[S+]([O-])c2nc3cc(OC)ccc3[nH]2)cc1OCc1ccccc1` (centres unmarked) [Example 26], 794 nM.
